Experiments:
[1] = tested on: ABUTH; test: Pre-emergence herbicidal action against ABUTH; assay type: in vivo, Abutilon theophrasti
Method in brief: (§1)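 Visual rating at 3 weeks vs untreated pots; 0–100% scale, 100% = plants died. Treatment: aqueous WP/EC spray onto covering soil, 600–800 l/ha, 0.2% wetter, seeds in sandy loam.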

[2] = tested on: AMARE; test: Pre-emergence herbicidal action against AMARE; assay type: in vivo, Amaranthus retroflexus
Method in brief: as §1

[3] = tested on: ECHCG; test: Pre-emergence herbicidal action against ECHCG; assay type: in vivo, Echinochloa crus-galli; settings: 80 g/ha
Method in brief: as §1

[4] = tested on: MATIN; test: Pre-emergence herbicidal action against MATIN; assay type: in vivo, Matricaria inodora
Method in brief: as §1

[5] = tested on: PHBPU; test: Pre-emergence herbicidal action against PHBPU; assay type: in vivo, Pharbitis purpurea; settings: dosage 80 g/ha
Method in brief: as §1

[6] = tested on: POLCO; test: Pre-emergence herbicidal action against POLCO; assay type: in vivo, Polygonum convolvulus; settings: dosage 80 g/ha
Method in brief: as §1

[7] = tested on: SETVI; test: Pre-emergence herbicidal action against SETVI; assay type: in vivo, Setaria viridis; settings: dosage 80 g/ha
Method in brief: as §1

[8] = tested on: VERPE; test: Pre-emergence herbicidal action against VERPE; assay type: in vivo, Veronica persica; settings: dosage 80 g/ha
Method in brief: as §1

[9] = tested on: VIOTR; test: Pre-emergence herbicidal action against VIOTR; assay type: in vivo, Viola tricolor
Method in brief: as §1

[10] = tested on: DIGSA; test: Pre-emergence herbicidal action against DIGSA; assay type: in vivo, Digitaria sanguinalis
Method in brief: as §1

[11] = tested on: ABUTH; test: Post-emergence herbicidal action against ABUTH; assay type: in vivo, Abutilon theophrasti; settings: visual assessment about 3 weeks after treatment vs untreated controls
Method in brief: (§2)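 Greenhouse pot plants in sandy loam were sprayed at the one-leaf stage, 2 to 3 weeks after sowing, with WP or EC formulations as aqueous suspension or emulsion (600 to 800 l/ha water, 0.2% wetting agent). About 3 weeks later, damage was scored visually against untreated controls as % action (100% = dead, 0% = like control).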

[12] = tested on: AMARE; test: Post-emergence herbicidal action against AMARE; assay type: in vivo, Amaranthus retroflexus; settings: 20 g/ha, visual assessment about 3 weeks after treatment, 100% = plants have died, 0% = like control plants
Method in brief: as §2

[13] = tested on: ECHCG; test: Post-emergence herbicidal action against ECHCG; assay type: in vivo, Echinochloa crus-galli
Method in brief: as §2

[14] = tested on: MATIN; test: Post-emergence herbicidal action against MATIN; assay type: in vivo, Matricaria inodora
Method in brief: as §2

[15] = tested on: PHBPU; test: Post-emergence herbicidal action against PHBPU; assay type: in vivo, Pharbitis purpurea; settings: dosage 20 g/ha
Method in brief: as §2

[16] = tested on: POLCO; test: Post-emergence herbicidal action against POLCO; assay type: in vivo, Polygonum convolvulus; settings: dosage 20 g/ha
Method: Seeds of monocotyledonous and dicotyledonous weed and crop plants are laid out in sandy loam soil in wood-fiber pots, covered with soil and cultivated in a greenhouse under good growth conditions. 2 to 3 weeks after sowing, the test plants are treated at the one-leaf stage. The compounds of the invention, formulated in the form of wettable powders (WP) or as emulsion concentrates (EC), are then sprayed onto the green parts of the plants in the form of an aqueous suspension or emulsion at a water application rate equivalent to 600 to 800 l/ha, with addition of 0.2% wetting agent. After the test plants have been left to stand in the greenhouse under optimal growth conditions for about 3 weeks, the action of the preparations is assessed visually in comparison to untreated controls (herbicidal action in percent (%): 100% activity=the plants have died, 0% activity=like control plants). […] The tables below illustrate, in an illustrative manner, the post-emergence herbicidal action of the compounds of the invention, the herbicidal activity being stated in percent.

[17] = tested on: SETVI; test: Post-emergence herbicidal action against SETVI; assay type: in vivo, Setaria viridis
Method in brief: as §2

[18] = tested on: VERPE; test: Post-emergence herbicidal action against VERPE; assay type: in vivo, Veronica persica; settings: 20 g/ha
Method in brief: as §2

[19] = tested on: VIOTR; test: Post-emergence herbicidal action against VIOTR; assay type: in vivo, Viola tricolor
Method in brief: as §2

[20] = tested on: AVEFA; test: Pre-emergence herbicidal action against AVEFA; assay type: in vivo, Avena fatua; settings: Avena fatua, 504 h; 80 g/ha, pre-emergence
Method in brief: as §1

[21] = tested on: DIGSA; test: Post-emergence herbicidal action against DIGSA; assay type: in vivo, Digitaria sanguinalis; settings: Digitaria sanguinalis, 504 h
Method in brief: as §2

[22] = 80 g/ha, scored visually after 3 weeks vs untreated controls (100% = plants have died, 0% = like control plants)
[23] = Tripleurospermum inodorum, 504 h, dosage 20 g/ha

## CCn1nnnc1NC(=O)c1ccc(C(F)F)c(C(=O)NC)c1C1CC1 [Example 2-304]
[1]; [22]
  Pre-emergence action against ABUTH (herbicidal activity): 100%
[1]; dosage 20 g/ha, scored visually after 3 weeks vs untreated controls, 100% = plants have died, 0% = like control plants
  Pre-emergence action against ABUTH (herbicidal activity in percent): 100%
[2]; 20 g/ha, scored visually after 3 weeks vs untreated controls, 100% = plants have died, 0% = like control plants
  Pre-emergence action against AMARE in %: 100%
[2]; [22]
  Pre-emergence action against AMARE in %: 100%
[3]
  Pre-emergence action against ECHCG in %: 90%
[4]; dosage 20 g/ha
  Pre-emergence action against MATIN in %: 90%
[4]; dosage 80 g/ha
  Pre-emergence action against MATIN in %: 100%
[5]
  Pre-emergence action against PHBPU in %: 90%
[6]
  Pre-emergence action against POLCO in %: 80%
[7]
  Pre-emergence action against SETVI in %: 90%
[8]
  Pre-emergence action against VERPE in %: 100%
[9]; dosage 20 g/ha
  Pre-emergence action against VIOTR in %: 90%
[9]; dosage 80 g/ha
  Pre-emergence action against VIOTR in %: 100%
[10]; dosage 20 g/ha
  Pre-emergence action against DIGSA in %: 90%
[10]; dosage 80 g/ha
  Pre-emergence action against DIGSA in %: 100%
[11]; dosage 5 g/ha
  Post-emergence action against ABUTH in %: 90%
[11]; dosage 20 g/ha
  Post-emergence action against ABUTH in %: 90%
[12]
  Post-emergence action at 20 g/ha against AMARE in %: 100%
[13]; dosage 20 g/ha
  Post-emergence action against ECHCG in %: 80%
[14]; dosage 5 g/ha
  Post-emergence action against MATIN in %: 90%
[14]; dosage 20 g/ha
  Post-emergence action against MATIN in %: 90%
[15]
  Post-emergence action against PHBPU in %: 90%
[16]
  Post-emergence action against POLCO in %: 80%
[17]; dosage 5 g/ha
  Post-emergence action against SETVI in %: 80%
[17]; dosage 20 g/ha
  Post-emergence action against SETVI in %: 80%
[18]
  Post-emergence action against VERPE in %: 90%
[19]; 5 g/ha
  Post-emergence action against VIOTR in %: 80%
[19]; 20 g/ha
  Post-emergence action against VIOTR in %: 90%

## Cn1nnnc1NC(=O)c1ccc(C(F)F)c(C(=O)NC2CC2)c1C1CC1 [Example 1-306]
[1]; Abutilon theophrasti, 504 h, 80 g/ha, scored visually after 3 weeks vs untreated controls (100% = plants have died, 0% = like control plants)
  pest or weed control at 80 g/ha: 100%
[1]; Abutilon theophrasti, 504 h, dosage 20 g/ha, scored visually after 3 weeks vs untreated controls, 100% = plants have died, 0% = like control plants, read-out: Pre-emergence action against ABUTH (herbicidal activity in percent)
  pest or weed control at 20 g/ha: 100%
[2]; Amaranthus retroflexus, 504 h, 20 g/ha, scored visually after 3 weeks vs untreated controls, 100% = plants have died, 0% = like control plants
  pest or weed control at 20 g/ha: 100%
[2]; Amaranthus retroflexus, 504 h, 80 g/ha, scored visually after 3 weeks vs untreated controls, 100% = plants have died, 0% = like control plants
  pest or weed control at 80 g/ha: 100%
[20]
  pest or weed control at 80 g/ha: 80%
[3]; Echinochloa crus-galli, 504 h
  pest or weed control at 80 g/ha: 100%
[4]; [23]
  pest or weed control at 20 g/ha: 100%
[4]; Tripleurospermum inodorum, 504 h, dosage 80 g/ha
  pest or weed control at 80 g/ha: 100%
[5]; Ipomoea purpurea, 504 h
  pest or weed control at 80 g/ha: 90%
[6]; Fallopia convolvulus, 504 h
  pest or weed control at 80 g/ha: 90%
[7]; Setaria viridis, 504 h
  pest or weed control at 80 g/ha: 100%
[8]; Veronica persica, 504 h
  pest or weed control at 80 g/ha: 90%
[9]; Viola tricolor, 504 h, dosage 20 g/ha
  pest or weed control at 20 g/ha: 100%
[9]; Viola tricolor, 504 h, dosage 80 g/ha
  pest or weed control at 80 g/ha: 100%
[10]; Digitaria sanguinalis, 504 h, dosage 20 g/ha
  pest or weed control at 20 g/ha: 100%
[10]; Digitaria sanguinalis, 504 h, dosage 80 g/ha
  pest or weed control at 80 g/ha: 100%
[11]; Abutilon theophrasti, 504 h, dosage 5 g/ha
  pest or weed control at 5 g/ha: 80%
[11]; Abutilon theophrasti, 504 h, dosage 20 g/ha
  pest or weed control at 20 g/ha: 80%
[12]; Amaranthus retroflexus, 504 h
  pest or weed control at 20 g/ha: 100%
[13]; Echinochloa crus-galli, 504 h, dosage 5 g/ha
  pest or weed control at 5 g/ha: 90%
[13]; Echinochloa crus-galli, 504 h, dosage 20 g/ha
  pest or weed control at 20 g/ha: 90%
[14]; Tripleurospermum inodorum, 504 h, dosage 5 g/ha
  pest or weed control at 5 g/ha: 90%
[14]; [23]
  pest or weed control at 20 g/ha: 90%
[16]; Fallopia convolvulus, 504 h
  pest or weed control at 20 g/ha: 80%
[17]; Setaria viridis, 504 h, dosage 5 g/ha
  pest or weed control at 5 g/ha: 90%
[17]; Setaria viridis, 504 h, dosage 20 g/ha
  pest or weed control at 20 g/ha: 90%
[18]; Veronica persica, 504 h
  pest or weed control at 20 g/ha: 90%
[19]; Viola tricolor, 504 h, 20 g/ha
  pest or weed control at 20 g/ha: 90%
[21]; 5 g/ha
  pest or weed control at 5 g/ha: 90%
[21]; 20 g/ha
  pest or weed control at 20 g/ha: 90%

From patent publication US12655116B2, “Substituted isophthalic acid diamides” (Bayer Aktiengesellschaft, priority 2020, dated 2026)
